From patent US11332451B2, “RIP1 inhibitory compounds and methods for making and using the same” (priority 2018, dated 2022)

Test system: TNF-alpha induced hypothermia
Experiment: acute hypothermia mouse model (TNF-alpha/zVAD-FMK induced hypothermia)
Type: in vivo, mice
Settings: dose of 5 mg/kg, oral gavage
Procedure: In this example, an acute hypothermia mouse model assay was used to evaluate the ability of compounds disclosed herein to inhibit TNF-alpha induced hypothermia.
Female C57BL/6 mice are randomly grouped and weighed on Day −1. On the day of the study (Day 0), mice are administered vehicle or test article by oral gavage. Fifteen minutes after oral administration of test agents, each mouse is administered an intraperitoneal (IP) injection of solution containing recombinant human tumor necrosis factor alpha (TNF-a, 25.0 μg) and zVAD-FMK (200 μg). Body temperature is measured at 0 hours (before IP injections) and every hour via rectal probe temperature measuring device. Three (3) hours after IP injections of TNF-α and zVAD/FMK, mice are euthanized by CO2 asphyxiation and blood is collected via cardiac puncture. Serum and plasma are harvested for determination of cytokine and compound levels, respectively. Separate groups of mice (satellite mice) are included for the determination of compound levels in plasma at the time of administration of TNFa/zVAD-FMK.
(S)-5-benzyl-N-(5-methyl-4-oxo-2,3,4,5-tetrahydrobenzo[b][1,4]oxazepin-3-yl)-4H-1,2,4-triazole-3-carboxamide (WO 2014/125444), having a structure as illustrated below, was used as a comparative compound and was examined using a similar protocol as described by WO 2014/125444.

SMILES: CN1C(=O)[C@@H](NC(=O)c2n[nH]c(Cc3ccccc3)n2)COc2ccc(C#CC(C)(C)O)cc21 [Compound I-30, (S)-5-benzyl-N-(7-(3-hydroxy-3-methylbut-1-yn-1-yl)-5-methyl-4-oxo-2,3,4,5-tetrahydrobenzo[b][1,4]oxazepin-3-yl)-1H-1,2,4-triazole-3-carboxamide]
- inhibition of TNF-alpha induced hypothermia: greater than 85%
